Laboratory results published in patent US20230014782A1, “NEW SOLID STATE FORM OF LURBINECTEDIN” (PHARMA MAR, S.A., priority 2019, published 2023).

Experiments:
[1] = Maximum solubility of lurbinectedin in different molarities of lactic acid; format: physicochemical
Procedure: As such, in embodiments, a concentrated lurbinectedin solution is prepared in organic acid before addition of other excipients. In preferred embodiments, the organic acid has a pH less than 4, preferably less than 3.5, more preferably less than 3, or around 3. The maximum solubility of lurbinectedin was investigated in different molarities of the organic acid lactic acid. […] In a preferred embodiment, lurbinectedin is dissolved in an organic acid with a molarity of around 0.1 M to 0.5 M, preferably around 0.2 M to 0.4 M, more preferably around 0.3 M organic acid. An exemplary molarity is 0.31 M organic acid.

[2] = test system: solid and non-solid tumour cell lines; details: cited from earlier work
[3] = Mixing of the concentrated lurbinectedin solution with buffer solution, precipitation; format: physicochemical; details: high concentration lurbinectedin solution (8.3 mg/mL in 0.1M lactic acid)
Procedure: In embodiments, a multi-step compounding strategy is used to prepare lurbinectedin. Step 1 is the pre-dissolution step described above, for example: pre-dissolving partly crystalline lurbinectedin in lactic acid 0.31M at 25 mg/mL and diluting 3× with WFI to obtain the concentrated solution at 8.3 mg/mL in 0.1M lactic acid. To avoid precipitation of lurbinectedin, the remaining excipients should have acid pH when added to the compounding formulation. […] As such, in Step 2, an organic buffer solution containing the bulking agent (eg disaccharide) may be prepared at suitable pH. By way of example, this may comprise the preparation of a 0.04 M sodium lactate buffer at pH of around 4.2 containing sucrose. In step 3, the solutions from step 1 and step 2 are combined to form the final bulk solution. The final bulk solution may be adjusted with WFI to achieve the final target weight. By way of example, in step 3, the 8.3 mg/mL lurbinectedin concentrated solution in 0.1M lactic acid with pH≈3 is diluted with 0.04M sodium lactate buffer pH≈4.2 containing sucrose. The final bulk solution composition after adjustment of WFI to final weight may be, by way of example, 0.5 mg/mL lurbinectedin in 0.03M sodium lactate buffer pH=4+10% (w/v) sucrose. The present invention therefore identifies a compounding strategy to formulate partially crystalline lurbinectedin.

[4] = test system: xenografted human tumor cell lines; details: xenografts in mice, such as breast, kidney and ovarian cancer; cited from earlier work
[5] = Electrostatic charge measurements with a Faraday cage; format: physicochemical; details: for Dispersion of charge density (Q/m) / Average charge density (Q/m): Faraday cage, dry nitrogen, ranges with 95% confidence; for Average charge density (Q/m): slope of lineal regression of charge vs mass
Text: The electrostatic charges of two batches of form A of lurbinectedin (Batches P04 and R05) and of form B of lurbinectedin (Batch 1924129-LT and 1924128-LT) have been measured using a Faraday cage (See FIG. 8) constructed of stainless steel with concentric spheres with ratios 10, 15 and 20 cm.
This technique consists in placing the sample to be measured (q) in the interior of the inner sphere (a) and measuring the difference of potential induced between sphere (a) and another conductor of reference, sphere (b). The external sphere (c) is grounded in order to shield the system. The measurements of the difference of potential were carried out with a precision electrometer (Keithley 617, resolution 10fC.
Measurements were carried out under controlled atmosphere of dry nitrogen in order to avoid the effect of ambient humidity on the electrostatic charge of the samples.
Samples were introduced in glass capsules using non-conductor instrumental to avoid loses of electrostatic charge.
The capsules loaded with the samples were introduced in the Faraday cage through a grounded conductor tube to avoid parasitic static charges in the glass capsule. The entry and removal of the capsules was done with a computer-controlled servo engine, in order to ensure a constant rate of introduction and removal of the capsules in each measurement to minimize the creation of static charges due to friction of the insulator elements.
Several measurements with different amounts of material were carried out for each batch of each form of lurbinectedin. Before loading the capsules, they were washed and their remaining static charge was measured in order to correct the levels. Each sample was introduced and removed five times and, after each introduction, several consecutive measurements were taken in order to average any possible drift effect. FIGS. 9a and 9b summarized the results of such measurement for each pair of batches of forms A and B of lurbinectedin.
The measured charge Q increases with the amount of analyzed material. Both forms of lurbinectedin have a positive electrostatic charge. […] The data was fitted by lineal regression (dashed lines in FIGS. 9a and 9b) to obtain the charge density (Q/m) as the slope of the line. […] All ranges are given with a 95% confidence.

[6] = Direct dissolution of lurbinectedin in sodium lactate buffer (dissolution kinetics); format: physicochemical
Procedure: In embodiments, the lurbinectedin to be dissolved is at least partially crystalline. The lurbinectedin to be dissolved may be in the solid state form(s) described herein. […] By way of example, while the direct dissolution of amorphous lurbinectedin at 0.5 mg/mL in 0.03 M sodium lactate buffer pH 4 was completed in approximately 30 minutes, partly crystalline lurbinectedin reached only 60-70% of the target concentration in 2 hours, meaning that it had much slower dissolution kinetics.

[7] = TG-FTIR thermal degradation; format: physicochemical; details: N2 atmosphere, 25-250° C., 10° C./min
Procedure: TG-FTIR experiments were conducted with a Thermo-Microbalance TG-209 (Netzsch) equipped with a FT-IR Spectrometer Vector 22 (Bruker) using Al crucible (open or with microhole) under N2 atmosphere with a heating range between 25 and 250° C. and a heating rate of 10° C./min.
TG-FTIR indicates degradation above 150° C. for form B of lurbinectedin. A release of 2.6% of water was detected.

[8] = DSC thermal degradation; format: physicochemical; details: closed Au crucibles, -50 to 250° C.
Procedure: DSC experiments were carried out with a Perkin Elmer DSC 7 using closed Au crucibles with a heating range between −50 to 250° C. and a heating rate of 10 or 20° C./min.
Estimation of the amorphous content by DSC was not possible. […] A glass transition temperature or melting point was not detected.

[9] = Dynamic vapor sorption (DVS); format: physicochemical
Procedure: DVS experiments were carried out with a Projekt Messtechnik SPS 11-100n multi-sample water vapor sorption analyzer. The sample was allowed to equilibrate at 50% r.h. before starting a pre-defined humidity program. The program was: • 2 h at 50% r.h. • 50 to 0% r.h. […]
DVS indicates a continuous water uptake and release with no steps and almost no hysteresis. […] Upon lowering the relative humidity again, the water content decreased and nearly returned to the original mass, see FIG. 5.

For lurbinectedin, the Maximum solubility ([1]; 0.05 M lactic acid) is listed as 7.2 mg/mL, the Maximum solubility ([1]; 0.5 M lactic acid) is listed as 90.4 mg/mL and the In vitro activity [2] is listed as “highly potent”. The “pH of buffer solution that can be mixed without precipitation of lurbinectedin” value [3] was ≤ 5.6 and the In vivo activity [4] was “significant”.

With lurbinectedin [form A of lurbinectedin] the “Total static charge relative to form B” value [5] was “considerably higher”, the “Dispersion of charge density (Q/m)” value ([5]; listed as P04) was 7.6 ± 2.8 nC/g and the “Dispersion of charge density (Q/m)” value ([5]; listed as R05) was 15.23 ± 5.64 nC/g. The “Average charge density (Q/m)” value ([5]; listed as P04) was 43.1 ± 3.86 nC/g, the “Average charge density (Q/m)” value ([5]; listed as R05) was 64.02 ± 7.98 nC/g and the “Time to complete direct dissolution” value ([6]; 0.5 mg/mL in 0.03 M sodium lactate buffer pH 4) was “approximately 30 minutes”.

In the case of lurbinectedin [form B of lurbinectedin], the “Dispersion of charge density (Q/m)” value ([5]; listed as 1924128-LT) is reported as 1.01 ± 0.3 nC/g, the “Dispersion of charge density (Q/m)” value ([5]; listed as 1924129-LT) is reported as 3.4 ± 1.4 nC/g and the “Average charge density (Q/m)” value ([5]; listed as 1924128-LT) is reported as 4.3 ± 0.4 nC/g. The “Average charge density (Q/m)” value ([5]; listed as 1924129-LT) was 4.96 ± 2.0 nC/g, the “Average charge density relative to form A” value ([5]; two different batches of each form) was “one order of magnitude lower” and the “Degradation temperature (TG-FTIR)” value [7] was “above 150 °C”. For the same substance, the “Fraction of target concentration reached” value ([6]; target 0.5 mg/mL in 0.03 M sodium lactate buffer pH 4, in 2 hours) was 60-70%, the “Temperature at which degradation begins (DSC)” value [8] was “above 130 °C” and the “Deliquescence (DVS)” value [9] was “not deliquescent”. The “Hygroscopicity (DVS)” value [9] was “hygroscopic” and the “Mass change Δm (water uptake, DVS)” value ([9]; 50 to 96% r.h.) was “≈ 4%”.
